From BindingDB's records for patent US12187713 (Betta Pharmaceuticals, 2025)

Target: Programmed cell death 1 ligand/protein 1 (Homo sapiens, UniProt Q9NZQ7+Q15116)
Assay: PD-1/PD-L1 Binding Assay (Alphascreen)
Description: The assays were conducted in a standard black 384-well polystyrene plate with a final volume of 20 μL. Inhibitors were first serially diluted in DMSO and then added to the plate wells before the addition of other reaction components. The final concentration of DMSO in the assay was […]. Add 100 nL/well of compound to the 384 reaction plate (6008280, PerkinElmer) with Echo and centrifuge at 1000 rpm for 1 minute. Add 5 μL/well 4×PD-L1 solutions to the 384 reaction plate, centrifuge at 1000 rpm for 1 minute, and add 5 μL/well 4×PD-1 solutions, centrifuge at 1000 rpm for 1 minute, and incubate at 25° C. for 15 minutes. The concentrations of the compounds were 300, 100, 33.33, 11.11, 3.70, 1.23, 0.41, 0.137, 0.046, 0.015, 0 nM, respectively. Add 10 μL/well 2× Anti-6×His AlphaLISA Acceptor beads and Streptavidin Donor beads solution (PerkinElmer-AL356F) to the above 384 reaction plate, centrifuge at 1000 rpm for 1 minute, and incubate at 25° C. in the dark for 120 minutes. Read the AlphaLISA signal value using the Envision Reader. IC50 determination was performed by fitting the curve of percent control activity versus the log of the inhibitor concentration using the GraphPad Prism 8.0 software.

Sequence of Programmed cell death 1 ligand/protein 1 (Q9NZQ7 whole entry): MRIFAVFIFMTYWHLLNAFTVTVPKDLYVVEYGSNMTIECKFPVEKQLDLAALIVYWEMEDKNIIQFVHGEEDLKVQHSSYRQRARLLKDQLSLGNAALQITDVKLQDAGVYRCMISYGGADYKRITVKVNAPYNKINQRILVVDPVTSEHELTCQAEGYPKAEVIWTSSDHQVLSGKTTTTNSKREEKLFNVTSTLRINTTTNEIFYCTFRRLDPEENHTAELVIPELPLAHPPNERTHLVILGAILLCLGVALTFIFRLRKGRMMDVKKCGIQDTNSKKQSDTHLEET
Sequence of Programmed cell death 1 ligand/protein 1 (Q15116 whole entry): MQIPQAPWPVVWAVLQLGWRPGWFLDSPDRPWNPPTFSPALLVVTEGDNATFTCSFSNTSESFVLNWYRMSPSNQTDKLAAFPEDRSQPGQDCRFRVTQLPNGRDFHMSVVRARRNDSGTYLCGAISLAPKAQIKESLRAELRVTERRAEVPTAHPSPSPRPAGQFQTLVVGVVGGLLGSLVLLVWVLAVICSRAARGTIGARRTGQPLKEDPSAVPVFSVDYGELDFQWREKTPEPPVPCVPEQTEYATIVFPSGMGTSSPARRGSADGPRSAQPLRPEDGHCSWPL

Row | Structure (SMILES) | IC50 [nM]
1 | CCCNCCCN(C)CC1=CC2N=C(c3cccc(-c4cccc(-c5nc6cc(CN7CCC[C@H]7C(=O)O)c(OC(F)F)cc6o5)c4C)c3C)OC2C=C1OC(F)F (some centres not stated) [US12187713, Example 53] | 2.5
2 | Cc1c(C2=NC3C=C(CN4CCC4(C)N)C(OC(F)F)=CC3O2)cccc1-c1cccc(-c2nc3cc(CN4CCC[C@H]4C(=O)O)c(OC(F)F)cc3o2)c1C (some centres not stated) [US12187713, Example 40] | 2.5
